Results reported in paper PMC6321233, “Cysteines and Disulfide-Bridged Macrocyclic Mimics of Teixobactin Analogues and Their Antibacterial Activity Evaluation against Methicillin-Resistant Staphylococcus Aureus (MRSA)” (Pharmaceutics, 2018).
In brackets after ≈: the same amount, converted by molar mass. Where two headings read alike, the source gives them in different places.

Assays:
[1] = tested on: S. aureus ATCC 29213; test: MIC, broth microdilution, Methicillin-sensitive S. aureus ATCC 29213; assay type: cell-based, Staphylococcus aureus; conditions: Mueller Hinton broth, 37 °C, 24 h, peptides in DMSO with 0.002% polysorbate 80, 128-0.25 µg/mL two-fold dilutions, no visible growth, runs in triplicate
Method: (§1) For minimum inhibitory concentration (MIC) assays, all peptides were dissolved in DMSO containing 0.002% polysorbate 80. Bacteria was grown in Mueller Hinton broth (Oxoid) in triplicate. All incubations were at 37 °C. Dilutions were carried out in triplicate, and 100 µL of autoclaved Mueller Hinton broth was added to wells 2–11 in a 96-well plate. 200 µL of the peptide was added to well one at a concentration of 128 µg/mL. 100 µL of peptide in well one was taken up and pipetted into well two. The mixture was then mixed via pipetting before 100 µL was taken up and pipetted into well three. This process was repeated up to well 10. Once the peptide was added to well 10, 100 µL was taken up and then discarded, ensuring that well 11 had no peptide present. Thus, the concentrations (in µg/mL) were: 128, 64, 32, 16, 8, 4, 2, 1, 0.5, 0.25, and 0 (no peptide present). Each well was then inoculated with 100 µL of bacteria that had been diluted to an OD 600 nm of 0.1. This was repeated three times. The 96-well plates were then incubated at 37 °C for 24 h. […]
(§2) Antibacterial activity of the teixobactin analogues was assessed against Methicillin-resistant Staphylococcus aureus (MRSA ATCC 33591, MRSA ATCC […]) and Methicillin-sensitive Staphylococcus aureus. The minimum inhibitory concentration was measured using the broth microdiluation method (see Experimental Section 2.4). […]

[2] = tested on: MRSA ATCC 700699; test: MIC, broth microdilution, MRSA ATCC 700699; assay type: cell-based, Staphylococcus aureus; conditions: Mueller Hinton broth, 37 °C, 24 h, peptides in DMSO with 0.002% polysorbate 80, 128-0.25 µg/mL two-fold dilutions, lowest concentration with no visible growth, runs in triplicate
Method: as §1, §2

[3] = tested on: MRSA ATCC 33591; conditions: reference peptides marked with superscript 12 in Table 1; cited from earlier work
Text: MIC: Minimum Inhibitory Concentration in µg/mL; all the MIC runs in triplicate. (-) = Not evaluated. | column: MRSA ATCC 33591

[4] = tested on: MRSA; conditions: introduction, strain not named; cited from earlier work
Text: Brimble et al. have also reported on the synthesis and antibacterial activity of teixobactin analogues by replacing L-allo-enduracididine with isosteres. Furthermore, teixobactin analogues with lipid tails were reported by Jamieson et al ...

[5] = tested on: MRSA ATCC 700699; conditions: reference peptide marked with superscript 12 in Table 1; cited from earlier work
Text: MIC: Minimum Inhibitory Concentration in µg/mL; all the MIC runs in triplicate. (-) = Not evaluated. | column: MRSA ATCC 700699

[6] = tested on: S. aureus ATCC 29213; conditions: reference peptide marked with superscript 12 in Table 1; cited from earlier work
Text: MIC: Minimum Inhibitory Concentration in µg/mL; all the MIC runs in triplicate. (-) = Not evaluated. | column: S. aureus ATCC 29213

Row | Compound | MIC: Minimum Inhibitory Concentration, MRSA ATCC 33591 [3] [µg/mL] | activity against MRSA compared with teixobactin (in words) [4] | also measured
1 | CN[C@H](CC(C)C)C(=O)N[C@H]1C(=O)N[C@@H](CC(N)=O)C(=O)N[C@H]2C(=O)N[C@H]3C(=O)N[C@H](C(=O)N[C@H](C(=O)O)c4cc(O)cc(O)c4-c4cc3ccc4O)[C@H](O)c3ccc(c(Cl)c3)Oc3cc2cc(c3O[C@@H]2O[C@H](CO)[C@@H](O)[C@H](O)[C@H]2O[C@H]2C[C@](C)(N)[C@H](O)[C@H](C)O2)Oc2ccc(cc2Cl)[C@H]1O [Vancomycin] | – | – | MIC: Minimum Inhibitory Concentration, S. aureus ATCC 29213 [1]: 4 µg/mL (≈ 2.76 µM); MIC: Minimum Inhibitory Concentration, MRSA ATCC 700699 [2]: 2 µg/mL (≈ 1.38 µM)
2 | Teixobactin | 0.25 | – | –
3 | Ile10-teixobactin | – | to the same extent as teixobactin | –
4 | Leu10-teixobactin | 0.25 | to the same extent as teixobactin | MIC: Minimum Inhibitory Concentration, MRSA ATCC 700699 [5]: 0.25 µg/mL; MIC: Minimum Inhibitory Concentration, S. aureus ATCC 29213 [6]: 0.062 µg/mL
